Patent US9090549B2, “1,4-naphthoquinones derivatives and therapeutic use thereof” (CENTRE NATIONAL DE LA RECHERCHE SCIENTIFIQUE (C.N.R.S.), priority 2008, dated 2015)
Where two headings read alike, the source gives them in different places.

Tests used:
[1] = test system: P. falciparum multidrug-resistant strain Dd2; assay: Dd2 growth inhibition, 3H-hypoxanthine assay; assay type: cell-based, Plasmodium falciparum; conditions: for IC50: Plasmodium falciparum, DD2, 48 h exposure then 24 h hypoxanthine, read-out: IC50 against Dd2
Description: The IC50 was tested by standard in vitro antiproliferation assays (Desjardins et al, 1979 Antimicrob. Agents Chemother 1979, 16, 710-718). Infected erythrocytes in ring stage (0.5% parasitemia, 2.5% hematocrit) in 96-well plates were exposed to the compounds for 48 h and then to radioactive hypoxanthine for 24 h. The amount of radioactivity in precipitable material served as an index of cell proliferation.

Pf-GHA = Pf-GHA growth inhibition, colorimetric NBT-based lactate dehydrogenase assay; assay type: cell-based; conditions: Plasmodium falciparum, read-out: IC50 against Pf-GHA
Description: The IC50 values against Pf-GHA and MRC-5 were determined by using the less sensitive colorimetric NBT-based lactate dehydrogenase assay (Makler et al, Am. J. Trop. Med. Hyg. 1993, 48 (6), 739-741) based on redox-reactions.
In Vitro Antiparasitic Bioassays. The strain is maintained in RPMI-1640 medium supplemented with 0.37 mM hypoxanthine, 25 mM HEPES, 25 mM NaHCO3, and 10% O^+ human serum together with 2-4% washed human O^+ erythrocytes. All cultures and assays are conducted under an atmosphere of 4% CO2, 3% O2 and 93% N2. Assays are performed in 96-well microtiter plates, each well containing 10 μL of the watery compound dilutions together with 190 μL of the malaria parasite inoculum (1% parasitaemia, 2% HCT). After 72 h incubation, plates are frozen and stored at −20° C. After thawing, 20 μL of each well is transferred into another plate together with 100 μL Malstat reagent and 20 μL of 1/1 mixture of PES (phenazine ethosulfate, 0.1 mg/mL) and NBT (Nitro Blue Tetrazolium Grade III, 2 mg/mL). Change in colour is measured spectrophotometrically at 655 nm. The results are expressed as % reduction in parasitaemia compared to control wells. Compounds are treated at 5 concentrations (64-16-4-1 and 0.25 μM or μg/mL).

P. berghei ANKA = assay: In vivo 4-day suppressive test in P. berghei-infected mice; parameters: species or system Plasmodium berghei; conditions: intraperitoneal
Description: The in vivo tests in the mouse model were done according to a standard protocol (Peters et al Handbook of Animal Models of Infection; Academic Press, London, 1999; pp. 756-771). […] […] For administration, compounds were freshly prepared in 10% DMSO in sterile phosphate-buffered saline the day of use. Two hours post-infection mice received the first treatment by the intraperitoneal route. Mice were further treated on days +1-3. Blood films from tail blood were prepared on day +4, and parasitaemia was determined by microscopic examination of Giemsa-stained blood films. […] […] Mice were treated and levels of parasitemia determined as described.

Structure (SMILES) | melting point | further results
CC1=C(C(=O)c2ccc(C(C)(C)C)cc2)C(=O)C2C=CC=CC2C1=O (stereo not shown) [P_TM48, 2-Methyl-3-(4-tertbutyl-benzoyl)-4a,8a-dihydro-[1,4]naphthoquinone] | 64 to 65 °C | 
O=C1C(Cc2ccc(Br)cc2)=C(C(F)F)C(=O)c2ccccc21 [P_TM101, 2-(4-Bromo-benzyl)-3-difluoromethyl-[1,4]naphthoquinone] | 103 to 104 °C | 
COc1ccc(OC)c(CC2=C(C)C(=O)C3C=CC=CC3C2=O)c1 (stereo not shown) [P_TM60, 2-(2,5-Dimethoxy-benzyl)-3-methyl-4a,8a-dihydro-[1,4]naphthoquinone] | 140 to 142 °C | IC50 [1]: < 100 nM
C[C@H]1[C@H](OC(=O)CCC(=O)O)O[C@@H]2O[C@@]3(C)CC[C@H]4[C@H](C)CC[C@@H]1[C@@]24OO3 [Artesunate, reference compound] |  | IC50 (Pf-GHA; 72 h): 5 nM
CC1=C(Cc2ccccc2)C(=O)C2C=CC=CC2C1=O (stereo not shown) [P_TM62, 2-Methyl-3-benzyl-4a,8a-dihydro-[1,4]naphthoquinone] | 103 to 104 °C | antimalarial activity against Dd2 ([1]; compared with substituted benzyl derivatives): less active
CC1=C(Cc2ccc(C(=O)NCCC#N)cc2)C(=O)C2C=CC=CC2C1=O (stereo not shown) [P_TM53, N-(2-Cyano-ethyl)-4-(3-methyl-1,4-dioxo-1,4,4a,8a-tetrahydronaphthalen-2-ylmethyl)-benzamide] | 131 to 132 °C | 
CC1=C(Cc2ccc(C(C)(C)C)cc2)C(=O)c2c(O)cccc2C1=O [P_TM81, 3-(4-tert-Butyl-benzyl)-5-hydroxy-2-methyl-[1,4]naphthoquinone] | 112 to 113 °C | IC50 (Pf-GHA; 72 h incubation): < 5000 nM
COc1ccc(CC2=C(C)C(=O)C3C=CC=CC3C2=O)cc1OC (stereo not shown) [P_TM54, 2-(3,4-Dimethoxy-benzyl)-3-methyl-4a,8a-dihydro-[1,4]naphthoquinone] | 102 to 103 °C | 
CC1=C(C(=O)c2ccc(C#N)cc2)C(=O)C2C=CC=CC2C1=O (stereo not shown) [P_TM46, 2-Methyl-3-(4-cyano-benzoyl)-4a,8a-dihydro-[1,4]naphthoquinone] | 185 to 186 °C | IC50 (Pf-GHA; 72 h incubation): < 5000 nM
COc1ccccc1CC1=C(C)C(=O)C2C=CC=CC2C1=O (stereo not shown) [P_TM32, 2-Methyl-3-(2-methoxy-benzyl)-4a,8a-dihydro-[1,4]naphthoquinone] | 117 to 118 °C | IC50 [1]: < 100 nM
CC1=C(Cc2ccc(-c3ccc(C(C)(C)C)cc3)cc2)C(=O)c2ccccc2C1=O [P_TM66, 2-(4′-tert-Butyl-biphenyl-4-ylmethyl)-3-methyl-[1,4]naphthoquinone] | 112 to 114 °C | IC50 (Pf-GHA; 72 h incubation): < 5000 nM
COC(=O)c1ccc(C(=O)C2=C(C)C(=O)c3ccccc3C2=O)cc1 [P_TM28, 4-(3-Methyl-1,4-dioxo-1,4-dihydro-naphthalene-2-carbonyl)-benzoic acid methyl ester] | 162 °C | 
CC1=C(Cc2ccc(NC(=O)OC(C)(C)C)cc2)C(=O)C2C=CC=CC2C1=O (stereo not shown) [P_TM45, [4-(3-Methyl-1,4-dioxo-1,4,4a,8a-tetrahydro-naphthalen-2-ylmethyl)-phenyl]-carbamic acid tert-butyl ester] | 148 to 149 °C | 
CC1=C(C(=O)c2ccc(Cl)cc2)C(=O)C2C=CC=CC2C1=O (stereo not shown) [P_TM38, 2-Methyl-3-(4-chloro-benzoyl)-4a,8a-dihydro-[1,4]naphthoquinone] |  | IC50 (Pf-GHA; 72 h incubation): < 5000 nM
CC1=C(Cc2cccc(Br)c2)C(=O)C2C=CC=CC2C1=O (stereo not shown) [P_TM99, 2-Methyl-3-(3-bromo-benzyl)-4a,8a-dihydro-[1,4]naphthoquinone] | 108 to 109 °C | 
O=C1C=C(C(F)F)C(=O)c2ccccc21 [HB49, 2-Difluoromethyl-1,4-naphthoquinone] | 74 °C | 
COc1c(C)c(Cc2ccc(Cl)cc2)c(OC)c2ccccc12 [P_TM75, 2-(4-Chloro-benzyl)-1,4-dimethoxy-3-methyl-naphthalene] | 101 to 102 °C | 
COc1c(C)c(C(O)c2ccc(Br)cc2)c(OC)c2ccccc12 (stereo not shown) [P_TM7, (4-Bromo-phenyl)-(1,4-dimethoxy-3-methyl-naphthalen-2-yl)-methanol] | 67 to 68 °C | 

Structure (SMILES) | melting point | further results
CC1=C(Cc2ccc(Br)cc2)C(=O)C2C(O)=CC=CC2C1=O (stereo not shown) [P_TM42, 3-(4-Bromo-benzyl)-5-hydroxy-2-methyl-4a,8a-dihydro-[1,4]naphthoquinone] | 163 to 164 °C | IC50 (Pf-GHA; 72 h incubation): < 5000 nM
CC1=C(Cc2ccc(C(=O)O)cc2)C(=O)C2C=CC=CC2C1=O (stereo not shown) [P_TM50, 4-(3-Methyl-1,4-dioxo-1,4,4a,8a-tetrahydro-naphthalen-2-ylmethyl)-benzoic acid] | 206 to 208 °C | 
COc1cc(CC2=C(C)C(=O)C3C=CC=CC3C2=O)cc(OC)c1 (stereo not shown) [P_TM58, 2-(3,5-Dimethoxy-benzyl)-3-methyl-4a,8a-dihydro-[1,4]naphthoquinone] | 127 to 128 °C | IC50 [1]: < 100 nM; IC50 (Pf-GHA; 72 h incubation): < 5000 nM
COc1ccc(CC2=C(C)C(=O)C3C=CC=CC3C2=O)c(OC)c1 (stereo not shown) [P_TM56, 2-(2,4-Dimethoxy-benzyl)-3-methyl-4a,8a-dihydro-[1,4]naphthoquinone] | 103 to 105 °C | 
CC1=C(Cc2ccc(C(C)C)cc2)C(=O)C2C=CC=CC2C1=O (stereo not shown) [P_TM100, 2-Methyl-3-(4-isopropyl-benzyl)-4a,8a-dihydro-[1,4]naphthoquinone] | 64 to 65 °C | 
COc1cccc(CC2=C(C)C(=O)c3ccccc3C2=O)c1 [P_TM96, 2-(3-Methoxy-benzyl)-3-methyl-[1,4]naphthoquinone] | 87 to 88 °C | 
COc1ccc(CC2=C(C)C(=O)C3C=CC=CC3C2=O)cc1 (stereo not shown) [P_TM31, 2-Methyl-3-(4-methoxy-benzyl)-4a,8a-dihydro-[1,4]naphthoquinone] | 112 to 113 °C | IC50 [1]: < 100 nM
O=C1C(O)=C([C@H]2CC[C@H](c3ccc(Cl)cc3)CC2)C(=O)c2ccccc21 [atovaquone, reference compound] |  | IC50 [1]: < 0.1 nM; IC50 (Pf-GHA; 72 h incubation): 310 nM
CC1=C(Cc2ccc(N)cc2)C(=O)C2C=CC=CC2C1=O (stereo not shown) [P_TM103, 2-Methyl-3-(4-amino-benzyl)-4a,8a-dihydro-[1,4]naphthoquinone] | 152 to 153 °C | 
CC1=C(Cc2ccc([N+](=O)[O-])cc2)C(=O)C2C=CC=CC2C1=O (stereo not shown) [P_TM37, 2-Methyl-3-(4-nitro-benzyl)-4a,8a-dihydro-[1,4]naphthoquinone] | 156 to 157 °C | reduction in parasitaemia (P. berghei ANKA; daily dose of 30 mg/kg, 4-day test, mice): 42.4%; activity on 4-day treatment (P. berghei ANKA; P. berghei-infected mice): significant activity
COc1c(C)c(Cc2ccc(N3CCN(Cc4ccc(C(C)(C)C)cc4)CC3)cc2)c(OC)c2ccccc12 [P_TM78, 1-(4-tert-Butyl-benzyl)-4-[4-(1,4-dimethoxy-3-methyl-naphthalen-2-ylmethyl)-phenyl]piperazine] | 63 to 65 °C | 
CC1=C(Cc2ccc(C#N)cc2)C(=O)C2C=CC=CC2C1=O (stereo not shown) [P_TM41, 2-Methyl-3-(4-cyano-benzyl)-4a,8a-dihydro-[1,4]naphthoquinone] | 159 to 160 °C | IC50 [1]: < 100 nM; IC50 (Pf-GHA; 72 h incubation): < 5000 nM
CC1=C(Cc2ccc(F)cc2)C(=O)C2C=CC=CC2C1=O (stereo not shown) [P_TM26, 2-Methyl-3-(4-fluoro-benzyl)-4a,8a-dihydro-[1,4]naphthoquinone] | 118 to 119 °C | 
CC1=C(Cc2ccc(Cl)cc2)C(=O)C2C=CC=CC2C1=O (stereo not shown) [P_TM30, 2-Methyl-3-(4-chloro-benzyl)-4a,8a-dihydro-[1,4]naphthoquinone] | 134 to 135 °C | IC50 [1]: < 100 nM; IC50 (Pf-GHA; 72 h incubation): < 5000 nM
COc1ccccc1C(=O)C1=C(C)C(=O)C2C=CC=CC2C1=O (stereo not shown) [P_TM35, 2-Methyl-3-(2-methoxy-benzoyl)-4a,8a-dihydro-[1,4]naphthoquinone] | 146 to 147 °C | 
CCCCC(C1=C(C)C(=O)c2ccccc2C1=O)c1ccc(-c2ccc([N+](=O)[O-])cc2)cc1 (stereo not shown) [P_TM67, 2-(4′-nitro-Butyl-biphenyl-4-ylmethyl)-3-methyl-[1,4]naphthoquinone] |  | IC50 (Pf-GHA; 72 h incubation): < 5000 nM
CC1=C(C(=O)c2ccc(C(=O)O)cc2)C(=O)C2C=CC=CC2C1=O (stereo not shown) [P_TM22, 4-(3-Methyl-1,4-dioxo-1,4,4a,8a-tetrahydro-naphthalene-2-carbonyl)-benzoic acid] | 201 °C (dec.) | 
